In ChEMBL document CHEMBL1201862, “PubChem BioAssay data set” (2004):
Activity calls are given as the source filed them.

How the values were obtained:
[1] = inhibitors of intracellular T. cruzi replication, confirmation, NIH3T3 host cells, beta-gal luminescence (AID 2044); type: functional, cell-based;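 further: intracellular parasites grown in NIH/3T3 mouse fibroblasts as host cells; luminescent beta-galactosidase reporter signal from transgenic T. cruzi replicating inside host cells; inhibitors lower the luminescence signal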
[2] = target: T1, Caspase-6 (Homo sapiens, UniProt P55212); experiment: human caspase-6 inhibitors, dose response, biochemical, VEID-R110 fluorescence, cherry-pick (AID 720632)
T1 sequence (P55212 whole entry): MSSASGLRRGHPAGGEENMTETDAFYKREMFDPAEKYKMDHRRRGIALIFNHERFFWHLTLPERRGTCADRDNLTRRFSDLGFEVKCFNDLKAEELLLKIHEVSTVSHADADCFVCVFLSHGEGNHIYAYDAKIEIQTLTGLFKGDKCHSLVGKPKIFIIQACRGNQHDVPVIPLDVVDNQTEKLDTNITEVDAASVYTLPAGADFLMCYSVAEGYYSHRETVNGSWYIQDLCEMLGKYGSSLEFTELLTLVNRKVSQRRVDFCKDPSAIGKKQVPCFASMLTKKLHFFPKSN

[3] = target: Ribosomal protein S6 kinase alpha-3 (Homo sapiens, UniProt P51812); type: functional;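 further: measured within a kinome-wide profiling panel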
[4] = target: cGMP-dependent protein kinase 1 (Homo sapiens, UniProt Q13976); type: functional;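 further: value from a kinome panel screen with PRKG1 as the panel member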
[5] = target: Serine/threonine-protein kinase PLK3 (Homo sapiens, UniProt Q9H4B4); type: functional
[6] = target: Tyrosine-protein kinase SYK (Homo sapiens, UniProt P43405); type: functional
[7] = target: Aurora kinase A (Homo sapiens, UniProt O14965); type: functional;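 further: value from the Navigating the Kinome kinase panel profiling, panel entry STK6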
[8] = target: Cell division cycle 7-related protein kinase (Homo sapiens, UniProt O00311); type: functional;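 further: value obtained from a kinome-wide kinase panel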
[9] = target: Mast/stem cell growth factor receptor Kit (Homo sapiens, UniProt P10721); type: functional;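 further: KIT entry within a kinase panel assay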
[10] = target: Fibroblast growth factor receptor 1 (Homo sapiens, UniProt P11362); type: functional
[11] = target: Proto-oncogene tyrosine-protein kinase Src (Homo sapiens, UniProt P12931); type: functional;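 further: SRC entry within a kinome-wide kinase profiling panel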
[12] = target: Hepatocyte growth factor receptor (Homo sapiens, UniProt P08581); type: functional;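 further: kinase panel profiling across the kinome, with MET as the panel member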
[13] = target: Maternal embryonic leucine zipper kinase (Homo sapiens, UniProt Q14680); type: functional
[14] = target: Aurora kinase B (Homo sapiens, UniProt Q96GD4); type: functional
[15] = target: Interleukin-1 receptor-associated kinase 4 (Homo sapiens, UniProt Q9NWZ3); type: functional
[16] = target: Tyrosine-protein kinase Fer (Homo sapiens, UniProt P16591); type: functional;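 further: FER tested as one member of a kinome panel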
[17] = target: 3-phosphoinositide-dependent protein kinase 1 (Homo sapiens, UniProt O15530); type: functional;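 further: value comes from the Navigating the Kinome panel, PDPK1 member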
[18] = target: Cyclin-dependent kinase 7 (Homo sapiens, UniProt P50613); type: functional;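 further: value comes from a kinome-wide kinase profiling panel in which CDK7 is one member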
[19] = target: Lymphokine-activated killer T-cell-originated protein kinase (Homo sapiens, UniProt Q96KB5); type: functional;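 further: value comes from a kinase panel screen in which TOPK was one of the panel members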

Aurora kinase B, sequence (Q96GD4 whole entry): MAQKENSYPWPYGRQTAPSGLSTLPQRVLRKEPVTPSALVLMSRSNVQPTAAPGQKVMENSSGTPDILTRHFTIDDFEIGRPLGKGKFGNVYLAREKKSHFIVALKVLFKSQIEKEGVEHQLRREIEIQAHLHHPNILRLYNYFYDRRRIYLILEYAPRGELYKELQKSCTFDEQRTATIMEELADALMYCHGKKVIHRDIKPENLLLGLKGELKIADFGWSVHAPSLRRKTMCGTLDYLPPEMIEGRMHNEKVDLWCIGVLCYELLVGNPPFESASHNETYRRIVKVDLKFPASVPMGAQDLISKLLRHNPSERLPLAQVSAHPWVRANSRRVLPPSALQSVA
cGMP-dependent protein kinase 1, sequence (Q13976 whole entry): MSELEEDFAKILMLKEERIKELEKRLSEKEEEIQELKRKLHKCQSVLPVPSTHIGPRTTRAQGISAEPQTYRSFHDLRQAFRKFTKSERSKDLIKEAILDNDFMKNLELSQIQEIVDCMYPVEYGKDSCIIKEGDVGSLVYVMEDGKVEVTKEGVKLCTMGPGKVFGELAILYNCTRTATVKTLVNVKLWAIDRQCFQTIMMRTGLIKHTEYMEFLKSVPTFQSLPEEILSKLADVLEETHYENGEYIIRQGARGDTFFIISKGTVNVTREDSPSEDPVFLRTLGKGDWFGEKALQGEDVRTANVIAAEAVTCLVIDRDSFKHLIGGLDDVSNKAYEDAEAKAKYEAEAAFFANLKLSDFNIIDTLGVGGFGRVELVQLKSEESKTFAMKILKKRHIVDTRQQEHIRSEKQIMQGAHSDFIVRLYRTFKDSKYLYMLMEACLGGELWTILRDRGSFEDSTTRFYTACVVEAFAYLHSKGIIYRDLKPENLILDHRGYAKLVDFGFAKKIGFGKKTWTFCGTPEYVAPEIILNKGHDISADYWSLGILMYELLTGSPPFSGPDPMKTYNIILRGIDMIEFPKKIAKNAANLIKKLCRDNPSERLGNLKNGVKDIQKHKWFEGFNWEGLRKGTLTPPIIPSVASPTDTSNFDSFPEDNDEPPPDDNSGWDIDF
Tyrosine-protein kinase Fer, sequence (P16591 whole entry): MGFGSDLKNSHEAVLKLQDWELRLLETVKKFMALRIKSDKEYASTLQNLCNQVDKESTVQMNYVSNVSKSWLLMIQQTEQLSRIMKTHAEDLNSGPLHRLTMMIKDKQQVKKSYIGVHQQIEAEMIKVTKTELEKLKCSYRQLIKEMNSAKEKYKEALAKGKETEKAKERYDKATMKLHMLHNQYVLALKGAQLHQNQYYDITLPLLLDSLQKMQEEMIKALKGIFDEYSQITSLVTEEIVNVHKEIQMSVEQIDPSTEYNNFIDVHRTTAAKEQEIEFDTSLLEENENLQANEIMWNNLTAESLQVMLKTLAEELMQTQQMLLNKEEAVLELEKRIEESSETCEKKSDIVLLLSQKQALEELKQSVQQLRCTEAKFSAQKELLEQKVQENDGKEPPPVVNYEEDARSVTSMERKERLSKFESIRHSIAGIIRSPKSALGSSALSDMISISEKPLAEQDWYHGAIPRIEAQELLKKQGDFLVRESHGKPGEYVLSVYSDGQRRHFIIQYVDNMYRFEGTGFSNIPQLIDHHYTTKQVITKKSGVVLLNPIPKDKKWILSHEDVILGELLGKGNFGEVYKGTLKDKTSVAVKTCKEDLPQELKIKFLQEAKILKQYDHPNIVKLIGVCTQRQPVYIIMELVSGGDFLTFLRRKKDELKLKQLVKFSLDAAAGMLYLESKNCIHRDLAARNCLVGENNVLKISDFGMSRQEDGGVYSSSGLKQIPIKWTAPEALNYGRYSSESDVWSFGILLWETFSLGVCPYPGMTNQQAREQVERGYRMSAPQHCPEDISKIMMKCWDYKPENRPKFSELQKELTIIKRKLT
Cell division cycle 7-related protein kinase, sequence (O00311 whole entry): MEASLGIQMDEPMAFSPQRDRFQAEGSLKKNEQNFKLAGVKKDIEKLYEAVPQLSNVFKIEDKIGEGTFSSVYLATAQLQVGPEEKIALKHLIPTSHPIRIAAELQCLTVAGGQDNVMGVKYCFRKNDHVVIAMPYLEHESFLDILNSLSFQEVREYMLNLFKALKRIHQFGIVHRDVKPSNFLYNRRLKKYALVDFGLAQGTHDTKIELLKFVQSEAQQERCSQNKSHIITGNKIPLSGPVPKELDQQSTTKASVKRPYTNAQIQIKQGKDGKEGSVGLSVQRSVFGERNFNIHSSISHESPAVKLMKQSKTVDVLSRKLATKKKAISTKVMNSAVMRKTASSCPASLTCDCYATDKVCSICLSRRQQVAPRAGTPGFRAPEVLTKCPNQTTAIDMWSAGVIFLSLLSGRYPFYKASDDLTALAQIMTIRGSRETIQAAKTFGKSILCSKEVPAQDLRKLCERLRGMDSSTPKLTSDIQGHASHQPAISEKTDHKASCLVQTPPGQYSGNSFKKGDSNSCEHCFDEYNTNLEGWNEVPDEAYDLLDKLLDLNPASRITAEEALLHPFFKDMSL
Fibroblast growth factor receptor 1, sequence (P11362 whole entry): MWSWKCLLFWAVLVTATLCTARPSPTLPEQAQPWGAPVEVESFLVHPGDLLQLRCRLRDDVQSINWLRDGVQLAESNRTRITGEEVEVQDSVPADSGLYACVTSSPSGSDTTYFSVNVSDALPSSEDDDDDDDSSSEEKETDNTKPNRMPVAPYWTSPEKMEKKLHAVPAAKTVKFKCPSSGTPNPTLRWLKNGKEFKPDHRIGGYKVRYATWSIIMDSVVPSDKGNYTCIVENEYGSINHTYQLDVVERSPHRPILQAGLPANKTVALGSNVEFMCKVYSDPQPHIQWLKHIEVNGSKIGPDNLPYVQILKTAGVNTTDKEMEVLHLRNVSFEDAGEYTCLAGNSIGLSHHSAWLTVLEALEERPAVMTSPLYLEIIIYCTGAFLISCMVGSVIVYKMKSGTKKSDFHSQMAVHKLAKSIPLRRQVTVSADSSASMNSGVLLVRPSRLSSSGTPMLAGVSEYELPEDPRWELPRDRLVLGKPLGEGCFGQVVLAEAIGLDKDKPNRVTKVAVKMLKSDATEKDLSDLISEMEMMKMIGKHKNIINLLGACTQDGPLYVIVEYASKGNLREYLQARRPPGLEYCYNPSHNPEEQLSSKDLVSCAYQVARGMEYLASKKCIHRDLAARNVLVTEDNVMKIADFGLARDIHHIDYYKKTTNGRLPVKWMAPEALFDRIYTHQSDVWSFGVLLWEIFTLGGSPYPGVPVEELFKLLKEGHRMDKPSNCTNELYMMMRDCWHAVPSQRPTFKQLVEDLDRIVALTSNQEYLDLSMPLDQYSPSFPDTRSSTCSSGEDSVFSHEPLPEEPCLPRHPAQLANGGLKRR
3-phosphoinositide-dependent protein kinase 1, sequence (O15530 whole entry): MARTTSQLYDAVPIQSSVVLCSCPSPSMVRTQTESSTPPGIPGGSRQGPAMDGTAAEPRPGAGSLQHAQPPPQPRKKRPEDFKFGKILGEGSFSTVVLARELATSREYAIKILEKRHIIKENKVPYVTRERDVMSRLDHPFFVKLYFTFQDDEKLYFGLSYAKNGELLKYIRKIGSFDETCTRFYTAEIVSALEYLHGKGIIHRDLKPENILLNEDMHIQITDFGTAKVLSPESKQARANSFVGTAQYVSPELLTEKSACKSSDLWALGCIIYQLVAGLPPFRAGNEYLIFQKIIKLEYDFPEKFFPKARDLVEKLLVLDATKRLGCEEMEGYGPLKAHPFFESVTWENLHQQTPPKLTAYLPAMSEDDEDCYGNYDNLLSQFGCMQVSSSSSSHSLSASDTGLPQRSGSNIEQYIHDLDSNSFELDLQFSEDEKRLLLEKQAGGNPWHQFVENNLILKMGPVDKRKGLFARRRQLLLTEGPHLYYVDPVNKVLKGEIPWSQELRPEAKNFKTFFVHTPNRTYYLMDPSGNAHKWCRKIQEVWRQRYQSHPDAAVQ
Serine/threonine-protein kinase PLK3, sequence (Q9H4B4 whole entry): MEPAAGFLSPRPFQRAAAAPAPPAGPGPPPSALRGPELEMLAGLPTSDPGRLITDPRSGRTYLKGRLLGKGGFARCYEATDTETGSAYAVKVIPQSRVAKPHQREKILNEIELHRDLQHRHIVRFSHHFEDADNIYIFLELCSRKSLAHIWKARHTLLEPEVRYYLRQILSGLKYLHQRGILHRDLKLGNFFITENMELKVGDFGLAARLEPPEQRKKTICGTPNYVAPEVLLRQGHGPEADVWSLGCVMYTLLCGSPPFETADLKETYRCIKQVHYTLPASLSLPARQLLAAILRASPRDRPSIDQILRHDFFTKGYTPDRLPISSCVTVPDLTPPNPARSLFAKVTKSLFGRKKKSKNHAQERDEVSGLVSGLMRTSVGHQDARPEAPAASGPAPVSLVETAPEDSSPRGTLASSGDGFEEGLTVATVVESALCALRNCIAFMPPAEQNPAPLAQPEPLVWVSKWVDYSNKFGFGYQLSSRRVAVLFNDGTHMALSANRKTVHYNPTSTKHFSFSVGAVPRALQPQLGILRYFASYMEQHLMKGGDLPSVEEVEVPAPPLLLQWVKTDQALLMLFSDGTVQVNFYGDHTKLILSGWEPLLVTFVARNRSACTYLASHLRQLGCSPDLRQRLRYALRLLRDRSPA
Aurora kinase A, sequence (O14965 whole entry): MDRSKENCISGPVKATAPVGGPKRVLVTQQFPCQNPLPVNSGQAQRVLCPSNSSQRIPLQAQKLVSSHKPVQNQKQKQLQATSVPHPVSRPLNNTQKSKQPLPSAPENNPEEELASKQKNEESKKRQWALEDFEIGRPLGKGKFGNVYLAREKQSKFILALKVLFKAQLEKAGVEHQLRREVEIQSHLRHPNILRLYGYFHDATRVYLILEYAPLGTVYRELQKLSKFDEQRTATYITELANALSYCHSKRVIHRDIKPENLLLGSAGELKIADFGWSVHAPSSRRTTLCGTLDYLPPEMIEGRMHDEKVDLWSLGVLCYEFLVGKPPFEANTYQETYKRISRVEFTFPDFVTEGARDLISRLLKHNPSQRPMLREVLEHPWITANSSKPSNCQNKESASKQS

| Ki [3] | Ki [4] | Ki [5] | Ki [6] | Ki [7] | Ki [8] | Ki [9] | Ki [10] | Ki [11] | Ki [12] | Ki [13] | Ki [14] | Ki [15] | Ki [16] | Ki [17] | Ki [18] | Structure (SMILES) | EC50 [1] | AC50 [2] | Ki [19] |
| --- | --- | --- | --- | --- | --- | --- | --- | --- | --- | --- | --- | --- | --- | --- | --- | --- | --- | --- | --- |
|  |  |  |  |  |  |  |  |  |  |  |  |  |  |  |  | Cc1c(NC(=O)C(C)OC(=O)c2ccc([N+](=O)[O-])s2)c(=O)n(-c2ccccc2)n1C (centres undefined) | 1590 nM (active) | 4820 nM (active) |  |
| 1260 nM (active) | 631 nM (active) | > 7940 nM (inactive) | > 1580 nM (inactive) | > 2000 nM (inactive) | > 1260 nM (inactive) | > 1260 nM (inactive) | > 3980 nM (inactive) | > 2000 nM (inactive) | > 2510 nM (inactive) | > 1580 nM (inactive) | 1000 nM (active) | 2510 nM (active) | > 1580 nM (inactive) | 631 nM (active) | 1000 nM (active) | CC(N)C1CCC(C(=O)Nc2ccnc3[nH]ccc23)CC1 (centres undefined) |  |  | 5010 nM (active) |
